How the values were obtained:
[1] = Biodistribution of 14C-CA4P following topical administration of a gel; format: in vivo, New Zealand rabbits
Experimental: ^14C-CA4P (OXiGENE Inc., Watertown, Mass.) was resuspended in 100 ul volume of saline solution and injected with a 30 G needle into the right eyes of anesthesized male New Zealand rabbits (4 months old, 1.8-2.5 kg, n=3 per sample). Three different concentrations of ^14C-CA4P were tested (1, 10, 100 mg/ml) corresponding to doses of 1, 5, and 5 uCi of applied radioactivity respectively. A blank control group was also included. Rabbits were anaesthetized at 1, 6, 24, and 48 hours for blood sampling. After blood collection, the animals were euthanized by Phenobarbital injection and the treated right eyes were removed from all test animals. Ocular tissue samples were dissected from the cornea, aqueous humor, vitreous humor, choroid, or retina, placed in 20-mi glass scintillation vials, vortexed, and incubated for 24 hrs with 500 ul digesting fluid. Plasma was separated from whole blood by centrifugation (1,800 g for 10 minutes). Both ocular tissue samples and plasma were incubated at room temperature with 16 ml of Hionic Fluor™ scintillation fluid for a period of 24 hours prior to radioactivity counting. Each sample was counted for 5 minutes in a Betamatic V counter (Bio-Tek Kontron Instruments, St Quentin en Yvelines, France). The conversion of counts per minute (“cpm”) into disintegrations per minute (“dpm”) was performed automatically by the beta-counter, using calibration curves obtained from ^14C-standards and quenching curves from the respective blank matrices spiked with ^14C-standards. The concentration of drug was determined according to nanogram equivalents of CA4P (ng-Eq/g of tissue) which was calculated from the measured dpm value, the weight of the tissue specimen, and the specific activity of the drug (0.37 mCi/mg), followed by subtraction of the corresponding background value from control eye tissue. A tissue concentration of 1 uM CA4P is equal to […] tissue.
Topical gels and solutions were developed for use as topical formulation suitable for the topical delivery of CA4P to the surface of the eye. Topical solutions (1, 3, and 10%) was directly prepared in 0.9% NaCl (Aguettant, Lyon, France) and sterilized with 0.2 um filter (pH 6.4 to 8.5, osmolarity 290 to 459 mosmol/kg H2O. Low viscosity topical gels (1,3,and 10%) were prepared in 0.5% carboxymethylcellulose (Sigma Aldrich Chimie, St. Quentin Fallavier Cedex, France) with 0.9% NaCl. The physicochemical specifications of each gel are listed in Table 5
Topical formulations were applied to the surface of right eyes at an applied dose of 5 uCi in a volume of 50 ul. Cornea was sampled instead of sclera. Samples were taken at […] and 24 hours.

[2] = Transscleral iontophoretic delivery to retina/choroid (LC/MS/MS); format: in vivo, New Zealand white rabbits; settings: for Enhancement: 20 min vs passive 0 mA; for Amount CA4P Delivered / Amount CA4 Delivered / Total Combretastatin Delivered: retina/choroid, mean ± SD; for Amount CA4P Delivered / Amount CA4 Delivered: CA4P 10 mg/ml; for Amount CA4 Delivered: extrapolated beyond quantification range
Experimental: CA4P is ionizable at physiological pH and therefore is amenable to iontophoretic delivery. The effectiveness of transcleral iontophoretic delivery of CA4P was evaluated using an ocular rabbit ophthalmic applicator (IOMED Inc.,.Salt Lake City, Utah) composed of an 180 ul silicone receptacle shell backed with silver chloride-coated silver foil current distribution component, a connector lead wire, and a single layer of hydrogel-impregnated polyvinyl acetal matrix to which CA4P (10 mg/ml) was administered. The contact surface area of the applicator was 0.54 cm^2. […] Direct current anodal iontophoresis was performed with each applicator at 2,3,and 4 mA for 20 min using an Phoresor II™ PM 700 (IOMED Inc., Salt Lake City, Utah) power supply. Passive iontophoresis (0 mA for 20 min) was used as a control. Following treatment, the animals were euthanized, and eyes were enucleated 30 minutes post-treatment, rinsed with tap water, and frozen at −70 C. Retina and choirodal tissue was dissected from these sample.
CA4P, CA, and the internal standard Diethylstilbestrol (Sigma Chemical Company) were quantified from approximately 100 mg of tissue using chromatography tandem mass spectrometry (“LC/MS/MS”) method. An aliquot of methonal extraction was injected onto a SCIEX APIO 3000 LC/MS/MS apparatus equipped with an HPLC colum. Peak area of the m/z 315→285 product ion of CA43 and m/z 395→79 product ion of CA4P were measured against the peak area of the m/z 267→237 product ion of the internal standard. Quantitation was performed using weighted (1/x) linear least squares regression analyses generated from fortified calibration standards prepared immediately prior to each run. […] These levels represent a several thousand-fold excess over what is considered to be a therapeutically relevant concentration for inhibiting tubulin binding (2-3 uM).

In the case of `COc1ccc(/C=C\c2cc(OC)c(OC)c(OC)c2)cc1OP(=O)([O-])[O-].[Na+].[Na+]` [CA4P, combretastatin A4 disodium phosphate], the Cmax ([1]; aqueous humor, 1% topical gel) is reported as 2.4 µM, the Cmax ([1]; aqueous humor, 3% topical gel) is reported as 8.2 µM and the Cmax ([1]; aqueous humor, 10% topical gel) is reported as 13 µM. The Cmax ([1]; choroid, 1% topical gel) was 2.8 µM, the Cmax ([1]; choroid, 3% topical gel) was 10.7 µM and the Cmax ([1]; choroid, 10% topical gel) was 22.5 µM. The “Concentration of drug delivered” value ([1]; cornea, retina and choroid, all three gel formulations) was over 1 µM, the Cmax ([1]; cornea, 1% topical gel, 50 ul) was 82 µM and the Cmax ([1]; cornea, 3% topical gel, 50 ul) was 118 µM. The Cmax ([1]; cornea, 10% topical gel, 50 ul) was 292 µM, the Cmax ([1]; plasma, 1% topical gel) was 0.09 µM and the Cmax ([1]; plasma, 3% topical gel) was 0.56 µM. For the same compound, the Cmax ([1]; plasma, 10% topical gel) was 1.63 µM, the Cmax ([1]; retina, 1% topical gel) was 1 µM and the Cmax ([1]; retina, 3% topical gel) was 5.8 µM. For the same compound, the Cmax ([1]; retina, 10% topical gel) was 5.8 µM, the “Time of highest concentrations of drug in the eye” value ([1]; topical gel) was “within the first hour” and the Enhancement ([2]; 2 mA) was 17. The Enhancement ([2]; 3 mA) was 16, the Enhancement ([2]; 4 mA) was 15 and the “Enhancement of delivery of total combretastatin to choroid and retina by iontophoresis” value ([2]; iontophoresis vs passive delivery) was “approximately 15 fold”. The “Amount CA4P Delivered” value ([2]; 0 mA, 20 min (passive)) was under 0.4 ng, the “Amount CA4 Delivered” value ([2]; 0 mA, 20 min (passive)) was 57 ± 37 ng and the “Total Combretastatin Delivered” value ([2]; 0 mA, 20 min (passive)) was 1.6 ± 1.0 nmol/g. For the same compound, the “Amount CA4P Delivered” value ([2]; 2 mA, 20 min) was 1.4 ± 0.5 ng, the “Amount CA4 Delivered” value ([2]; 2 mA, 20 min) was 910 ± 630 ng and the “Total Combretastatin Delivered” value ([2]; 2 mA, 20 min) was 27 ± 15 nmol/g. For the same compound, the “Amount CA4P Delivered” value ([2]; 3 mA, 20 min) was 3.8 ± 1.5 ng, the “Amount CA4 Delivered” value ([2]; 3 mA, 20 min) was 710 ± 450 ng and the “Total Combretastatin Delivered” value ([2]; 3 mA, 20 min) was 25 ± 17 nmol/g. For the same compound, the “Amount CA4P Delivered” value ([2]; 4 mA, 20 min) was 7.2 ± 6.3 ng, the “Amount CA4 Delivered” value ([2]; 4 mA, 20 min) was 670 ± 440 ng and the “Total Combretastatin Delivered” value ([2]; 4 mA, 20 min) was 24 ± 10 nmol/g.
